ChEMBL document CHEMBL3352642, “6-Acetonyldihydrochelerythrine Is a Potent Inducer of Apoptosis in HCT116 and SW620 Colon Cancer Cells” (J Nat Prod, 2014)
Activity calls are given as the source filed them. No cut-off for these calls is given here.

Key:
[1] = Cytotoxicity against human HCT116 cells after 72 hrs by MTS assay; format: functional, cell-based; conditions: HCT-116, 72 h
[2] = tested on: SW-620; assay: Cytotoxicity against human SW620 cells after 72 hrs by MTS assay; format: functional, cell-based; conditions: SW-620, 72 h
[3] = (§1) Cytotoxicity against human HCT116 cells assessed as cell death at IC50 after 72 hrs by LDH release assay relative to control; format: functional, HCT-116
[4] = (§2) Cytotoxicity against human HCT116 cells assessed as cell death at 2 times IC50 after 72 hrs by LDH release assay relative to control; format: functional, HCT-116
[5] = tested on: SW-620; assay: Cytotoxicity against human SW620 cells assessed as cell death at 2 times IC50 after 72 hrs by LDH release assay relative to control; format: functional
[6] = (§3) Induction of cell death in human HCT116 cells at IC50 after 72 hrs by Guava ViaCount assay relative to control; format: functional, HCT-116
[7] = tested on: SW-620; assay: Induction of cell death in human SW620 cells at IC50 after 72 hrs by Guava ViaCount assay relative to control; format: functional
[8] = (§4) Induction of cell death in human HCT116 cells at 2 times IC50 after 72 hrs by Guava ViaCount assay relative to control; format: functional, HCT-116
[9] = tested on: SW-620; assay: Induction of cell death in human SW620 cells at 2 times IC50 after 72 hrs by Guava ViaCount assay relative to control; format: functional
[10] = tested on: HCT-116; assay: Induction of apoptosis in human HCT116 cells assessed as change in nuclear morphology at IC50 after 24 hrs by fluorescent microscopy relative to control; format: functional
[11] = tested on: SW-620; assay: Induction of apoptosis in human SW620 cells assessed as change in nuclear morphology at IC50 after 24 hrs by fluorescent microscopy relative to control; format: functional
[12] = tested on: HCT-116; assay: Induction of apoptosis in human HCT116 cells assessed as change in nuclear morphology at 2 times IC50 after 24 hrs by fluorescent microscopy relative to control; format: functional
[13] = tested on: SW-620; assay: Induction of apoptosis in human SW620 cells assessed as change in nuclear morphology at 2 times IC50 after 24 hrs by fluorescent microscopy relative to control; format: functional
[14] = tested on: HCT-116; assay: Induction of apoptosis in human HCT116 cells assessed as reduction in ERK5 expression at 1 to 2 times IC50 after 72 hrs by immunoblot analysis relative to control; format: functional, cell-based
[15] = tested on: HCT-116; assay: Induction of apoptosis in human HCT116 cells assessed as reduction in Akt expression at 1 to 2 times IC50 after 72 hrs by immunoblot analysis relative to control; format: functional, cell-based
[16] = tested on: HCT-116; assay: Induction of apoptosis in human HCT116 cells assessed as increase in p53 expression at 1 to 2 times IC50 after 72 hrs by immunoblot analysis relative to control; format: functional, cell-based
[17] = tested on: HCT-116; assay: Induction of apoptosis in human HCT116 cells assessed as reduction in XIAP expression at 1 to 2 times IC50 after 72 hrs by immunoblot analysis relative to control; format: functional, cell-based
[18] = tested on: HCT-116; assay: Induction of apoptosis in human HCT116 cells assessed as reduction in Bcl-XL expression at 1 to 2 times IC50 after 72 hrs by immunoblot analysis relative to control; format: functional, cell-based
[19] = tested on: HCT-116; assay: Induction of apoptosis in human HCT116 cells assessed as reduction in Bcl-2 expression at 1 to 2 times IC50 after 72 hrs by immunoblot analysis relative to control; format: functional, cell-based
[20] = tested on: HCT-116; assay: Induction of apoptosis in human HCT116 cells assessed as increase in PARP cleavage at 1 to 2 times IC50 after 72 hrs by immunoblot analysis relative to control; format: functional, cell-based
[21] = tested on: SW-620; assay: Induction of apoptosis in human SW620 cells assessed as reduction in ERK5 expression at 1 to 2 times IC50 after 72 hrs by immunoblot analysis relative to control; format: functional, cell-based
[22] = tested on: SW-620; assay: Induction of apoptosis in human SW620 cells assessed as reduction in Akt expression at 1 to 2 times IC50 after 72 hrs by immunoblot analysis relative to control; format: functional, cell-based
[23] = tested on: SW-620; assay: Induction of apoptosis in human SW620 cells assessed as increase in p53 expression at 1 to 2 times IC50 after 72 hrs by immunoblot analysis relative to control; format: functional, cell-based
[24] = tested on: SW-620; assay: Induction of apoptosis in human SW620 cells assessed as reduction in XIAP expression at 1 to 2 times IC50 after 72 hrs by immunoblot analysis relative to control; format: functional, cell-based
[25] = tested on: SW-620; assay: Induction of apoptosis in human SW620 cells assessed as reduction in Bcl-XL expression at 1 to 2 times IC50 after 72 hrs by immunoblot analysis relative to control; format: functional, cell-based
[26] = tested on: SW-620; assay: Induction of apoptosis in human SW620 cells assessed as reduction in Bcl-2 expression at 1 to 2 times IC50 after 72 hrs by immunoblot analysis relative to control; format: functional, cell-based
[27] = tested on: SW-620; assay: Induction of apoptosis in human SW620 cells assessed as increase in PARP cleavage at 1 to 2 times IC50 after 72 hrs by immunoblot analysis relative to control; format: functional, cell-based
[28] = tested on: HCT-116; assay: as §1; format: functional
[29] = tested on: HCT-116; assay: as §2; format: functional
[30] = tested on: SW-620; assay: Cytotoxicity against human SW620 cells assessed as cell death at IC50 after 72 hrs by LDH release assay relative to control; format: functional
[31] = tested on: HCT-116; assay: as §3; format: functional
[32] = tested on: HCT-116; assay: as §4; format: functional

COc1ccc2c(c1OC)[C@H](CC(C)=O)N(C)c1c-2ccc2cc3c(cc12)OCO3
IC50 [1]: 2.4 µM | IC50 [2]: 3.8 µM | fold change (FC) [3]: 1.2 | fold change (FC) [4]: 1.3 | fold change (FC) [5]: 1.1 | Activity [6]: 25% | Activity [7]: 34% | Activity [8]: 65% | Activity [9]: 65% | Activity [10]: 19% | Activity [11]: 22% | Activity [12]: 22% | Activity [13]: 27% | Activity [14]: Active | Activity [15]: Active | Activity [16]: Active | Activity [17]: Active | Activity [18]: Active | Activity [19]: Active | Activity [20]: Active | Activity [21]: Active | Activity [22]: Active | Activity [23]: Active | Activity [24]: Active | Activity [25]: Active | Activity [26]: Active | Activity [27]: Active

O=c1[nH]cc(F)c(=O)[nH]1 [FLUOROURACIL]
IC50 [1]: 0.5 µM | IC50 [2]: 5.3 µM | Activity [28]: Active | Activity [29]: Active | fold change (FC) [30]: 1.1 | fold change (FC) [5]: 1.9 | Activity [31]: Active | Activity [7]: Active | Activity [32]: Active | Activity [9]: Active | Activity [12]: <10% | Activity [13]: 13%
